In patent US20140235533A1, “DIHYDROFURAN DERIVATIVES AS INSECTICIDAL COMPOUNDS” (SYNGENTA PARTICIPATIONS AG, priority 2011, published 2014):

What was measured:
Format in all cases: in vivo
[1] = system: Spodoptera littoralis; test: Spodoptera littoralis (Egyptian cotton leafworm) cotton leaf disc spray test; settings: foliar, 72 h, 200 ppm spray on cotton leaf discs, 5 L1 larvae, mortality, feeding behavior, growth regulation 3 days after treatment
Text: Spodoptera littoralis (Egyptian Cotton Leafworm) Cotton leaf discs were placed on agar in a 24-well microtiter plate and sprayed with test solutions at an application rate of 200 ppm. After drying, the leaf discs were infested with 5 L1 larvae. The samples were checked for mortality, feeding behavior, and growth regulation 3 days after treatment (DAT).

[2] = system: Diabrotica balteata; test: Diabrotica balteata (corn root worm) artificial diet MTP test; settings: 120 h, 200 ppm (concentration in well 18 ppm), L2 larvae, larval mortality and growth regulation after 5 days
Method: Diabrotica balteata (Corn Root Worm): A 24-well microtiter plate (MTP) with artificial diet was treated with test solutions at an application rate of 200 ppm (concentration in well 18 ppm) by pipetting. After drying, the MTPs were infested with L2 larvae (6-10 per well). After an incubation period of 5 days, samples were checked for larval mortality and growth regulation.

[3] = system: Heliothis virescens; test: Heliothis virescens (tobacco budworm) egg test on artificial diet; settings: 96 h, 200 ppm (concentration in well 18 ppm), eggs 0-24 h old on artificial diet, egg mortality, larval mortality, growth regulation after 4 days
Method: Heliothis virescens (Tobacco Budworm):
Eggs (0-24 h old) were placed in 24-well microtiter plate on artificial diet and treated with test solutions at an application rate of 200 ppm (concentration in well 18 ppm) by pipetting. After an incubation period of 4 days, samples were checked for egg mortality, larval mortality, and growth regulation. The following compound gave at least 80% control of Heliothis virescens: A1, A2, A03, A05, A06, A07, A08, A09, A10, A11, A12, A13, A14, A15, A16, A17, A18, A19, A20, A21, A22, A25, A26, A27, A31, A32, A34, A37, A39, A40, A42, A44, A45, A46, A47, A48, A49, A50, A51, A52, A53, B1**.

[4] = system: Plutella xylostella; test: Plutella xylostella (diamond back moth) artificial diet MTP test; settings: 144 h, 200 ppm (concentration in well 18 ppm), L2 larvae, larval mortality and growth regulation after 6 days
Method: Plutella xylostella (Diamond Back Moth): 24-well microtiter plate (MTP) with artificial diet was treated with test solutions at an application rate of 200 ppm (concentration in well 18 ppm) by pipetting. After drying, the MTPs were infested with L2 larvae (7-12 per well). After an incubation period of 6 days, samples were checked for larval mortality and growth regulation.

[5] = system: Tetranychus urticae; test: Tetranychus urticae (two-spotted spider mite) bean leaf disc spray test; settings: foliar, 192 h, 200 ppm spray on bean leaf discs, mite populations of mixed ages, egg, larval and adult mortality 8 days later
Text: Tetranychus urticae (Two-Spotted Spider Mite): Bean leaf discs on agar in 24-well microtiter plates were sprayed with test solutions at an application rate of 200 ppm. After drying, the leaf discs are infested with mite populations of mixed ages. 8 days later, discs are checked for egg mortality, larval mortality, and adult mortality.

Measured: pest or weed control at 200 ppm

COc1ccc(C(=O)NCc2ccc(C3=COC(c4cc(Cl)cc(Cl)c4)(C(F)(F)F)C3)cc2Cl)cc1 (stereo not drawn) [Compound A26, N-[[2-chloro-4-[2-(3,5-dichlorophenyl)-2-(trifluoromethyl)-3H-furan-4-yl]phenyl]methyl]-4-methoxy-benzamide]
not listed: [5]
≥ 80%: all other assays above

CCSC(SCC)C(=O)NCc1ccc(C2=COC(c3cc(Cl)cc(Cl)c3)(C(F)(F)F)C2)cc1Cl (stereo not drawn) [Compound A53, N-[[2-chloro-4-[2-(3,5-dichlorophenyl)-2-(trifluoromethyl)-3H-furan-4-yl]phenyl]methyl]-2,2-bis(ethylsulfanyl)acetamide]
not listed: [5]
≥ 80%: all other assays above

Cc1cc2ncc(C(=O)NCc3ccc(C4=COC(c5cc(Cl)cc(Cl)c5)(C(F)(F)F)C4)cc3Cl)c(C)n2n1 (stereo not drawn) [Compound A40, N-[[2-chloro-4-[2-(3,5-dichlorophenyl)-2-(trifluoromethyl)-3H-furan-4-yl]phenyl]methyl]-2,7-dimethyl-pyrazolo[1,5-a]pyrimidine-6-carboxamide]
≥ 80%: [3] | [5] | [4]

O=C(NCc1ccc(C2=COC(c3cc(Cl)cc(Cl)c3)(C(F)(F)F)C2)cc1Cl)c1cccc(F)c1F (stereo not drawn) [Compound A20, N-[[2-chloro-4-[2-(3,5-dichlorophenyl)-2-(trifluoromethyl)-3H-furan-4-yl]phenyl]methyl]-2,3-difluoro-benzamide]
not listed: [5]
≥ 80%: all other assays above

Cn1nc(C(=O)NCc2ccc(C3=COC(c4cc(Cl)cc(Cl)c4)(C(F)(F)F)C3)cc2Cl)sc1=O (stereo not drawn) [Compound A50, N-[[2-chloro-4-[2-(3,5-dichlorophenyl)-2-(trifluoromethyl)-3H-furan-4-yl]phenyl]methyl]-4-methyl-5-oxo-1,3,4-thiadiazole-2-carboxamide]
not listed: [5]
≥ 80%: all other assays above

O=C(NCc1ccc(C2=COC(c3cc(Cl)cc(Cl)c3)(C(F)(F)F)C2)cc1Cl)c1cccs1 (stereo not drawn) [Compound A44, N-[[2-chloro-4-[2-(3,5-dichlorophenyl)-2-(trifluoromethyl)-3H-furan-4-yl]phenyl]methyl]thiophene-2-carboxamide]
not listed: [5]
≥ 80%: all other assays above

Cc1cccnc1C(=O)NCc1ccc(C2=COC(c3cc(Cl)cc(Cl)c3)(C(F)(F)F)C2)cc1Cl (stereo not drawn) [Compound A39, N-[[2-chloro-4-[2-(3,5-dichlorophenyl)-2-(trifluoromethyl)-3H-furan-4-yl]phenyl]methyl]-3-methyl-pyridine-2-carboxamide]
not listed: [5]
≥ 80%: all other assays above

CC1CCCCC1C(=O)NCc1ccc(C2=COC(c3cc(Cl)cc(Cl)c3)(C(F)(F)F)C2)cc1Cl (stereo not drawn) [Compound A11, N-[[2-chloro-4-[2-(3,5-dichlorophenyl)-2-(trifluoromethyl)-3H-furan-4-yl]phenyl]methyl]-2-methyl-cyclohexanecarboxamide]
≥ 80%: [3] | [5] | [4]

CCC(Cl)C(=O)NCc1ccc(C2=COC(c3cc(Cl)cc(Cl)c3)(C(F)(F)F)C2)cc1Cl (stereo not drawn) [Compound A47, 2-chloro-N-[[2-chloro-4-[2-(3,5-dichlorophenyl)-2-(trifluoromethyl)-3H-furan-4-yl]phenyl]methyl]butanamide]
not listed: [5]
≥ 80%: all other assays above

CSc1ccc(C(=O)NCc2ccc(C3=COC(c4cc(Cl)cc(Cl)c4)(C(F)(F)F)C3)cc2Cl)cc1 (stereo not drawn) [Compound A27, N-[[2-chloro-4-[2-(3,5-dichlorophenyl)-2-(trifluoromethyl)-3H-furan-4-yl]phenyl]methyl]-4-methylsulfanyl-benzamide]
≥ 80%: [2] | [3]

O=C(NCc1ccc(C2=COC(c3cc(Cl)cc(Cl)c3)(C(F)(F)F)C2)cc1Cl)c1ncoc1-c1ccccc1 (stereo not drawn) [Compound A38, N-[[2-chloro-4-[2-(3,5-dichlorophenyl)-2-(trifluoromethyl)-3H-furan-4-yl]phenyl]methyl]-5-phenyl-oxazole-4-carboxamide]
≥ 80%: [1]

O=C(CCc1ccccc1)NCc1ccc(C2=COC(c3cc(Cl)cc(Cl)c3)(C(F)(F)F)C2)cc1Cl (stereo not drawn) [Compound A09, N-[[2-chloro-4-[2-(3,5-dichlorophenyl)-2-(trifluoromethyl)-3H-furan-4-yl]phenyl]methyl]-3-phenyl-propanamide]
≥ 80%: [2] | [3] | [4]

O=C(CCN1C(=O)c2ccccc2C1=O)NCc1ccc(C2=COC(c3cc(Cl)cc(Cl)c3)(C(F)(F)F)C2)cc1Cl (stereo not drawn) [Compound A22, N-[[2-chloro-4-[2-(3,5-dichlorophenyl)-2-(trifluoromethyl)-3H-furan-4-yl]phenyl]methyl]-3-(1,3-dioxoisoindolin-2-yl)propanamide]
not listed: [5]
≥ 80%: all other assays above

O=C(NCc1ccc(C2=COC(c3cc(Cl)cc(Cl)c3)(C(F)(F)F)C2)cc1Cl)c1c[nH]cn1 (stereo not drawn) [Compound A31, N-[[2-chloro-4-[2-(3,5-dichlorophenyl)-2-(trifluoromethyl)-3H-furan-4-yl]phenyl]methyl]-1H-imidazole-4-carboxamide]
≥ 80%: [1] | [3] | [4]

CSC1(C(=O)NCc2ccc(C3=COC(c4cc(Cl)cc(Cl)c4)(C(F)(F)F)C3)cc2Cl)CC1 (stereo not drawn) [Compound A49, N-[[2-chloro-4-[2-(3,5-dichlorophenyl)-2-(trifluoromethyl)-3H-furan-4-yl]phenyl]methyl]-1-methylsulfanyl-cyclopropanecarboxamide]
≥ 80%: [1] | [3] | [4]

O=C(CCC(=O)c1ccccc1)NCc1ccc(C2=COC(c3cc(Cl)cc(Cl)c3)(C(F)(F)F)C2)cc1Cl (stereo not drawn) [Compound A13, N-[[2-chloro-4-[2-(3,5-dichlorophenyl)-2-(trifluoromethyl)-3H-furan-4-yl]phenyl]methyl]-4-oxo-4-phenyl-butanamide]
≥ 80%: [1] | [3] | [4]

O=C(CSc1nc2ccccc2[nH]1)NCc1ccc(C2=COC(c3cc(Cl)cc(Cl)c3)(C(F)(F)F)C2)cc1Cl (stereo not drawn) [Compound A12, 2-(1H-benzimidazol-2-ylsulfanyl)-N-[[2-chloro-4-[2-(3,5-dichlorophenyl)-2-(trifluoromethyl)-3H-furan-4-yl]phenyl]methyl]acetamide]
≥ 80%: [3] | [4]

O=C(NCc1ccc(C2=COC(c3cc(Cl)cc(Cl)c3)(C(F)(F)F)C2)cc1Cl)c1ccc(O)c(F)c1 (stereo not drawn) [Compound A52, N-[[2-chloro-4-[2-(3,5-dichlorophenyl)-2-(trifluoromethyl)-3H-furan-4-yl]phenyl]methyl]-3-fluoro-4-hydroxy-benzamide]
≥ 80%: [3] | [4]
